pIC50: −log10 of the molar value.
Target: HSD17B13 (Homo sapiens (Human), UniProt Q7Z5P4)
Experiment: LC/MS estrone detection assay: conversion of estradiol to estrone by HSD17B13
Type: biochemical
Settings: 4 μM estradiol, 6 mM NAD+, 30 nM HSD17B13 enzyme (E. coli expressed His-tagged), 2 hours at 26.5° C.
Outline: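 His-tagged E. coli-expressed HSD17B13 (30 nM) with 4 μM estradiol and 6 mM NAD+ in 1 M potassium phosphate pH 7.4, 0.5% DMSO, 2 h at 26.5° C. Estrone and estradiol quantified by LC-MS/MS after MeCN quench with D4-estrone internal standard; activity as % of uninhibited enzyme, IC50 by four-parameter fit, duplicates.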

Chain of HSD17B13 (Q7Z5P4 20-300): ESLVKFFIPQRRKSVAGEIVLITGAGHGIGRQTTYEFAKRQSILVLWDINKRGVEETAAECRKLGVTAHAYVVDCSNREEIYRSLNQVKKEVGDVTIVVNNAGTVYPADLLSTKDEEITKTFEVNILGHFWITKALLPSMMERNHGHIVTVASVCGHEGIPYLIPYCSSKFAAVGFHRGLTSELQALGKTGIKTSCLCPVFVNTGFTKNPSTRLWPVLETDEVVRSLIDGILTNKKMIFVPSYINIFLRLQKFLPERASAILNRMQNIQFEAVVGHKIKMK

SMILES	pIC50
Cc1ccc(NC(=O)c2cc(Cl)c(O)c(Cl)n2)c2c(=O)n(Cc3cccc(C(F)(F)F)n3)c(C)nc12 [Example 205, 4,6-dichloro-N-(2,8-dimethyl-4-oxo-3-((6-(trifluoromethyl)pyridin-2-yl)methyl)-3,4-dihydroquinazolin-5-yl)-5-hydroxypicolinamide]	6.00 to 6.30
O=C(Nc1ccc(F)c2ncn(Cc3ccccc3C(F)(F)F)c(=O)c12)c1cc(Cl)c(O)c(Cl)n1 [Example 206, 4,6-dichloro-N-(8-fluoro-4-oxo-3-(2-(trifluoromethyl)benzyl)-3,4-dihydroquinazolin-5-yl)-5-hydroxypicolinamide]	≥ 7.00
Cc1nc2c(F)ccc(NC(=O)c3cc(Cl)c(O)c(Cl)n3)c2c(=O)n1[C@H]1CC[C@@H]1c1ccccc1 [Example 207, 4,6-dichloro-N-(8-fluoro-2-methyl-4-oxo-3-((1S,2R)-2-phenylcyclobutyl)-3,4-dihydroquinazolin-5-yl)-5-hydroxypicolinamide]	6.30 to 7.00
